The subject of series [1] is SKMES Human Lung Carcinoma Xenograft. The procedure: Antitumor compounds were formulated for oral administration over a wide dose range in a study to investigate the efficacy of this compound against the SKMES human lung cancer xenograft. The antitumor compounds were prepared in the following vehicle: 5% ethanol, 5% Cremophor and 90% isotonic saline.
Female Nu/Nu mice (6-8 weeks of age; implanted with 1 mm^3 SKMES lung carcinoma fragments in the flank) were sorted into treatment groups of six mice each. SKMES size ranges and group mean SKMES size ranges were 126-448 mg and 238-241 mg, respectively. […] Treatments were administered as a single oral bolus on Day 1, and the study was terminated on Day 60.
The mean days of survival is the number of days after which a SKMES neoplasm reached a size of 2.0 g and the animal was euthanized. A complete response is obtained if the tumor is not palpable at the end of the study. A partial response is obtained if the tumor shrinks to a size smaller than its size on Day 1 of the study. […]

In series [2] the test system is HCT116 human colon carcinoma xenograft. Particulars: for long term survivors at the end of the experiment: HCT116, i.v. and oral groups together (out of thirty), Day 60; for Survivors: 10 mice/group, study end Day 60. The text has this:
Six groups consisting of ten mice in each group were made up of female Nu/Nu mice (8-9 weeks of age; implanted with 1 mm^3 HCT116 human […] carcinoma fragments in the flank). Another six groups consisting of ten mice in each group were made up of male Nu/Nu mice (6-7 weeks of age; implanted with 1 mm^3 HCT116 human […] carcinoma fragments in the flank). […] The study was terminated on Day 60.
The results are summarized in Table 19 for the female mice and Table 20 for the male mice. Included are mean days of survival (MDS), number of toxic deaths, number of survivors, number of complete or partial responses, and number with stable disease. The mean days of survival is the number of days after which an […] neoplasm reached a size of 1.5 g and the animal was euthanized. A complete response is obtained if the tumor is not palpable at the end of the study. A partial response is obtained if the tumor shrinks to a size smaller than its size on Day 1 of the study. […]

Series [3] concerns NCI-H1299 (H1299) carcinoma. Particulars: i.v. split dose qd x 1 at MTD (Taxol 36 mg/kg, 1393 72.1 mg/kg), 6 mice/group, Day 60. The protocol:
Two antitumor compounds were formulated for an i.v. dosing regime prepared in the following vehicle: 10% ethanol, 10% Cremophor and 80% isotonic saline. […] Other compounds were formulated similarly.
The MTDs for the antitumor compounds were calculated from earlier single dose data for mice receiving i.v. administration of these compounds. […] Vehicle control animals were dosed twice intravenously with half the total volume being given separated by one hour. The study was terminated at Day 60.
The results are summarized in Table 1 and include mean days of survival (MDS), number of toxic deaths, number of survivors, number of complete or partial responses, and number with stable disease. The mean days of survival is the number of days after which a neoplasm reached a size of 1.5 g and the animal was euthanized. A complete response is obtained if the tumor is not palpable at the end of the study. A partial response is obtained if the tumor shrinks to a size smaller than its size on Day 1 of the study.
A tumor scoring system was designed to provide a more quantitative ranking of efficacy (therapeutic potential) among the antitumor agents evaluated against the different human solid tumor xenografts. Each mouse in a study was given a score of from 1 to 10 at the end of the study. The scores can be summarized as follows:
The individual score for each mouse was averaged into a mean score for each treatment group. […]
The treatment protocol for the H1299 test was identical to the SK-MES test protocol. […]

In series [4] the test system is SKMES human lung cancer xenograft. Particulars: for Survivors: 6 mice/group, study end Day 62; for 62-day survivors: SKMES, 6 mice. The protocol:
Female Nu/Nu mice (6-8 weeks of age; implanted with 1 mm^3 SKMES lung carcinoma fragments in the flank) were sorted into treatment groups of six mice each. […] Treatment was administered as a single bolus on Day 1, and the study was terminated on Day 62.
The mean days of survival is the number of days after which a SKMES neoplasm reached a size of 2.0 g and the animal was euthanized. A complete response is obtained if the tumor is not palpable at the end of the study. A partial response is obtained if the tumor shrinks to a size smaller than its size on Day 1 of the study.

Setting [5] is: SKMES, 1418 single oral bolus 90 mg/kg (Group 4), 6 mice, Day 60.

The text below walks through data of patent EP1285918A1, “C7 Ester substituted taxanes as antitumor agents” (Florida State University Research Foundation, Inc., priority 2001, dated 2003).

Each structure is given as a SMILES string. Like-named read-outs stand apart in the source and are kept apart here.

For the molecule `CCC(=O)OC1CC2OCC2(OC(C)=O)C2C(OC(=O)c3ccccc3)C3(O)CC(OC(=O)C(O)C(NC(=O)OC(C)(C)C)c4ccco4)C(C)=C(C(O)C(=O)C12C)C3(C)C` (stereo not drawn) [Compound 1393, 3'-Desphenyl-3'-(2-furyl)-7-propionyl taxotere], the Survivors turned out to be 1 in series [1] (5.2 mg/kg single oral bolus Day 1, 6 mice/group, study end Day 60); 1 in series [1] (10.4 mg/kg single oral bolus Day 1, 6 mice/group, study end Day 60); 0 in series [1] (20.8 mg/kg single oral bolus Day 1, 6 mice/group, study end Day 60); 2 in series [1] (42 mg/kg single oral bolus Day 1, 6 mice/group, study end Day 60); 5 in series [1] (73 mg/kg single oral bolus Day 1, 6 mice/group, study end Day 60); 6 in series [1] (104 mg/kg single oral bolus Day 1, 6 mice/group, study end Day 60). Further, the Survivors in series [2] (female mice, 104 mg/kg i.v. in 5% ethanol and 95% Liposyn II (Group 4)) was found to be 10; in series [2] (female mice, 104 mg/kg i.v. in 5% ethanol and 95% Liposyn III (Group 5)), 10; in series [2] (female mice, 104 mg/kg oral in 5% ethanol, 5% Cremophor and 90% isotonic saline (Group 6)), 9; in series [2] (male mice, 73 mg/kg i.v. in 5% ethanol and 95% Liposyn II (Group 4)), 10; in series [2] (male mice, 73 mg/kg i.v. in 5% ethanol and 95% Liposyn III (Group 5)) it was 8; in series [2] (male mice, 73 mg/kg oral in 5% ethanol, 5% Cremophor and 90% isotonic saline (Group 6)), 10. Also, the Survivors in series [3] stood at 4; in series [4] (5.2 mg/kg single IV bolus Day 1), 0; in series [4] (5.2 mg/kg single oral bolus Day 1), 0; in series [4] (10.4 mg/kg single IV bolus Day 1), 0; in series [4] (10.4 mg/kg single oral bolus Day 1), 0; in series [4] (20.8 mg/kg single IV bolus Day 1), 0. Further, the Survivors in series [4] (20.8 mg/kg single oral bolus Day 1) is on record as 0; in series [4] (42 mg/kg single IV bolus Day 1) it was 4; in series [4] (42 mg/kg single oral bolus Day 1), 0; in series [4] (73 mg/kg single IV bolus Day 1), 6; in series [4] (73 mg/kg single oral bolus Day 1) it was 2; in series [4] (104 mg/kg single IV bolus Day 1) it was 6. This molecule had a Survivors in series [4] (104 mg/kg single oral bolus Day 1) of 5. Besides, the “long term survivors at the end of the experiment” value in series [2] (female mice, 1393 104 mg/kg) is on record as “twenty-eight”; in series [2] (male mice, 1393 73 mg/kg) it was “Twenty-nine”. For the same molecule, the 62-day survivors entry in series [4] (1393 single IV bolus 42 mg/kg (Group 5)) is reported as “four”; in series [4] (1393 single IV bolus 73 mg/kg (Group 4)), “six”; in series [4] (1393 single IV bolus 104 mg/kg (Group 3)) it was “six”; in series [4] (1393 single oral bolus 72.8 mg/kg (Group 12)), “two”; in series [4] (1393 single oral bolus 104 mg/kg (Group 11)) it was “Five”.

Take `CCC(=O)O[C@H]1C[C@H]2OC[C@@]2(OC(C)=O)[C@H]2[C@H](OC(=O)c3ccccc3)[C@]3(O)C[C@H](OC(=O)[C@H](O)[C@@H](NC(=O)OC(C)(C)C)c4cccs4)C(C)=C([C@@H](O)C(=O)[C@]12C)C3(C)C` [Compound 1418]: the “Toxic Deaths” value in series [1] (90 mg/kg single oral bolus Day 1, 6 mice/group, study end Day 60) came out at 0. This molecule returned a total response rate in series [1] (SKMES, 1418 single oral bolus 90 mg/kg (Group 4)) of 100%. Besides, in series [1] (setting [5]), the Complete Responses result is on record as “four” and the Partial Responses entry is reported as “two”. Moreover, in series [1] (po, 90 mg/kg), the “% Total Response” value was 100%, the “Complete Responses” value amounted to 4 and the “Partial Responses” value is reported as 2.
